For three molecules, TC, Lowering and Increase results are on record in ChEMBL document CHEMBL1127068, “Selective inhibition of mammalian lanosterol 14 alpha-demethylase: a possible strategy for cholesterol lowering” (J Med Chem, 1993).

Common to all, as to format: functional, Cricetulus griseus
Assay [1] relates to Cricetinae gen. sp. The assay can be described thus: Effect on total serum cholesterol in male hamsters at a dose of 60 mg/kg orally administered for 3 days. The note with it: route oral.
The subject of assay [2] is Cricetinae gen. sp. The assay can be described thus: Percentage lowering of the total serum cholesterol in male hamsters at a dose of 60 […] orally administered for 3 days.
Assay [3] deals with Cricetinae gen. sp. The assay can be described thus: Effect on total serum cholesterol in male hamsters at a dose of 10 mg/kg orally administered for 14 days. The note with it: route oral.
The test system of assay [4] is Cricetinae gen. sp. The assay is described as follows: Effect on total serum cholesterol in male hamsters at a dose of 100 mg/kg orally administered for 14 days. The note with it: route oral.
Assay [5] relates to Cricetinae gen. sp. The assay can be described thus: Effect on total serum cholesterol in male hamsters at a dose of 25 mg/kg orally administered for 14 days. As to conditions: route oral.
The subject of assay [6] is Cricetinae gen. sp. The assay can be described thus: Effect on total serum cholesterol in male hamsters at a dose of 50 mg/kg orally administered for 14 days. As to conditions: route oral.
Assay [7] relates to Cricetinae gen. sp. The assay can be described thus: Percentage lowering of the total serum cholesterol in male hamsters at a dose of 100 […] orally administered for 14 days.
For assay [8], the system named is Cricetinae gen. sp. The assay is described as follows: Percentage lowering of the total serum cholesterol in male hamsters at a dose of 50 mg/dL orally administered for 14 days.
For assay [9], the system named is Cricetinae gen. sp. The assay can be described thus: Percentage increase of the total serum cholesterol in male hamsters at a dose of 25 […] orally administered for 14 days.
The subject of assay [10] is Cricetinae gen. sp. The assay is described as follows: Percentage increase of the total serum cholesterol in male hamsters at a dose of 10 […] orally administered for 14 days.
Assay [11] concerns Cricetinae gen. sp. The assay is described as follows: Percentage lowering of the total serum cholesterol in male hamsters at a dose of 25 mg/dL orally administered for 14 days.
The subject of assay [12] is Cricetinae gen. sp. The assay can be described thus: Percentage lowering of the total serum cholesterol in male hamsters at a dose of 75 mg/dL orally administered for 14 days.
The subject of assay [13] is Cricetinae gen. sp. The assay is described as follows: Effect on total serum cholesterol in male hamsters at a dose of 75 mg/kg orally administered for 14 days. As to conditions: route oral.

SMILES strings stand for the structures.

In the assay with Cricetinae gen. sp. [1], `Nc1ccc(SC[C@H]2CO[C@](CCc3ccc(Cl)cc3)(Cn3ccnc3)O2)cc1` had a TC of 85.1 mg/dL. This molecule came in with a Lowering in the assay with Cricetinae gen. sp. [2] of 40%.

Regarding `Nc1ccc(SC[C@@H]2CO[C@@](CCc3ccc(Cl)cc3)(Cn3ccnc3)O2)cc1`, the TC turned out to be 125.2 mg/dL in the assay on Cricetinae gen. sp. [3]; 113.3 mg/dL with Cricetinae gen. sp. [4]; 125.8 mg/dL with Cricetinae gen. sp. [5]; 112.4 mg/dL in the assay on Cricetinae gen. sp. [6]; 120.4 mg/dL with Cricetinae gen. sp. [1]. Besides, the values for the Lowering in the assay with Cricetinae gen. sp. [7], in the assay with Cricetinae gen. sp. [8] and in the assay with Cricetinae gen. sp. [2] were 4%, 6% and 15%, respectively. The Increase in the assay with Cricetinae gen. sp. [9] and in the assay on Cricetinae gen. sp. [10] was 6% throughout.

Take `Cl.Cl.Cl.Nc1ccc(SC[C@@H]2CO[C@](CCc3ccc(Cl)cc3)(Cn3ccnc3)O2)cc1`: the Lowering in the assay with Cricetinae gen. sp. [11] came out at 8%; with Cricetinae gen. sp. [12], 40%; in the assay on Cricetinae gen. sp. [7] it was 49%; in the assay on Cricetinae gen. sp. [8], 30%. Moreover, the TC worked out at 65.6 mg/dL with Cricetinae gen. sp. [4], 117.4 mg/dL in the assay on Cricetinae gen. sp. [5], 88.9 mg/dL in the assay on Cricetinae gen. sp. [6] and 76 mg/dL in the assay with Cricetinae gen. sp. [13].
